Key:
[1] = test system: A375 melanoma cells; assay: MTT cell viability assay, A375; assay type: cell-based, human; conditions: for IC50: Homo sapiens, A-375, MTT, 24 h, combinations 1:1, mean ± SD; for Therapeutic index (TI): IC50 of HaCat cells/IC50 of A375 cells
Excerpt: (§1) The human cell lines TK10 (human kidney adenocarcinoma), UACC62 (human melanoma) and MCF7 (human breast adenocarcinoma) were obtained from the National Cancer Institute (NCI) as part of a panel widely studied for drug screening and molecular target identification. […] The nontumorigenic human immortalized keratinocyte (HaCaT) cells were a kind donation by the School of Anatomical Sciences, Faculty of Health Sciences, University of the Witwatersrand, South Africa. […] All reagents were of analytical grade and were obtained from Merck (Darmstadt, Germany) unless stated otherwise. Cells were cultured in Dulbecco’s modified essential medium (DMEM; Hyclone, GE healthcare, South Logan, UT, USA) containing 10% fetal bovine serum (FBS), 1% penicillin/streptomycin, 1% 200 mM L-Glutamine and 1% nonessential amino acids (Lonza, Basel, Switzerland) at 37°C in a humidified atmosphere of 5% CO2. Stock solutions of the compounds were prepared in dimethyl sulfoxide (DMSO). All subsequent dilutions were prepared in serum-free DMEM and vehicle controls were included in all experiments
(§2) The growth inhibitory effects of the compounds were tested in the 3-cell line panel consisting of TK10 (renal), UACC62 (melanoma) and MCF7 (breast) cancer cells by Sulforhodamine B (SRB) assay. […] Compounds prepared in DMSO were tested at 0.01–100 µM serial dilutions to establish initial inhibitory concentrations. […] After 24 h exposure to compounds, growth medium was removed, cells rinsed twice with 1 ml of phosphate buffered saline (PBS) and 100 µl fresh serum-free medium containing 5 mg/ml MTT solution was added MTT solution was prepared fresh for each analysis). Cells were then incubated for 4 h at 37°C, after which the MTT was removed and substituted with 100 µl dimethyl sulfoxide (DMSO) to dissolve the formazan crystals for an h at 37°C. After incubation, cell viability was determined using a microplate reader (BioTek®, Vermont, USA) at an excitation wavelength of 560 nm and emission wavelength of 630 nm with DMSO measured as a blank. Cell viability was expressed as a percentage relative to the untreated control, which is assumed to be 100% viable. For a positive control, cells were treated with 0.01% Triton-X 100 (Sigma-Aldrich, St Louis, MO, USA) for a period of 4 h. Using the MTT assay data, IC50 values were calculated using GraphPad Prism 8. Data were normalized to the positive (alleged to be 0% viable) and negative controls (presumed to be 100% viable), followed by the log-transformation of the concentration values. […] A crude therapeutic index (fold decrease in IC50 value) was calculated as the IC50 of the noncancerous cell-line/IC50 of the cancerous cell line. […] Drug interactions were evaluated for synergism, additivity or antagonism using multiple drug effect analysis, based on the median-principle. Cells were treated with the drug combinations for 24 h and analyzed. The CompuSyn (ComboSyn, Inc. NJ, USA) software package was used to generate the median-effect plots and combination index plots. […] All experiments were performed at least in triplicate and repeated independently.
(§3) Next, the quantitative colorimetric MTT assay was used to determine in vitro cell viability with A375 (melanoma) and HaCat (nonmalignant keratinocyte) cells. […] The IC50 was used to determine a crude therapeutic index (fold increase or decline in IC50).

[2] = test system: HaCat normal keratinocytes; assay: LDH release membrane integrity assay, HaCat; conditions: compounds at their IC50 concentrations, 24 h; combinations 1:1; relative to maximum release
Excerpt: (§4) In order to determine cell membrane integrity, the CytoTox-ONE™ Homogeneous Membrane Integrity Assay (Promega, Madison, WO, USA) was employed. This fluorometric assay measures the release of LDH from cells with damaged cell membranes. […] The manufacturer’s instructions were followed to determine the fluorescence at an excitation wavelength of 560 nm and an emission wavelength of 590 nm. In order to calculate the percentage cytotoxicity, the average fluorescent values of the background medium were subtracted from all average fluorescent values of the experimental samples and the positive control. Cytotoxicity is expressed as a percentage relative to the positive control, which is assumed to be responsible for 100% LDH release. The fold increase in LDH release was taken as the indication of the selectivity toward melanoma cell membranes, calculated as the […]. All experiments were performed at least in triplicate and independently repeated. Statistical significant differences were calculated with one-way ANOVA.
(§5) Results are expressed relative to the untreated control and the maximum release sample, which was set as having 0% and 100% LDH release respectively. The LDH released from the nonmalignant HaCat cells and the A375 melanoma cells was then used to deduce the selectivity of the compounds against melanoma cell membranes.

[3] = test system: A375 melanoma cells; assay: LDH release membrane integrity assay, A375; assay type: cell-based, human; conditions: for LDH release, result in words: IC50 concentrations, 24 h (Table 3, Figure 6C); for A375 (% LDH release): compounds at their IC50 concentrations, 24 h, combinations 1:1, relative to maximum release; for Fold increase in LDH release: selectivity toward melanoma cell membranes, A375 vs HaCat
Excerpt: as §4, §5

[4] = test system: HaCat normal keratinocytes; assay: MTT cell viability assay, HaCat; assay type: cell-based, human; conditions: Homo sapiens, HaCaT, 24 h, combinations 1:1, mean ± SD, read-out: HaCat IC50
Excerpt: as §1, §2, §3

## C[C@H]1[C@H](N2CCS(=O)(=O)CC2)O[C@@H]2O[C@@]3(C)CC[C@H]4[C@H](C)CC[C@@H]1[C@@]24OO3 [Artemisone 4, artemisone]
[1]
  IC50: 95.7 ± 2.31 µM
  Therapeutic index (TI): 2.8
[2]
  HaCat (% LDH release): 19 ± 0.79%
[3]
  LDH release, result in words: did not significantly increase the release of LDH
  A375 (% LDH release): 27 ± 0.81%
  Fold increase in LDH release: 1.4
[4]
  CC50: 268.8 ± 1.97 µM

## CC(C)=CCC/C(C)=C/CC/C(C)=C/CN1CCN([C@@H]2O[C@@H]3O[C@@]4(C)CC[C@H]5[C@H](C)CC[C@@H]([C@H]2C)[C@@]35OO4)CC1 [Farnesylpiperazine-DHA 7, farnesylpiperazine-DHA]
[1]
  IC50: 32.6 ± 1.08 µM
  Therapeutic index (TI): 2.1
[2]
  HaCat (% LDH release): 18 ± 0.67%
[3]
  A375 (% LDH release): 57 ± 1.21%
  Fold increase in LDH release: 3.1
[4]
  CC50: 70.6 ± 1.07 µM

## CC(C)=CCC/C(C)=C/CN1CCN([C@@H]2O[C@@H]3O[C@@]4(C)CC[C@H]5[C@H](C)CC[C@@H]([C@H]2C)[C@@]35OO4)CC1 [Geranylpiperazine-DHA 6, geranylpiperazine-DHA]
[1]
  IC50: 46.9 ± 0.89 µM
  Therapeutic index (TI): 2.2
[2]
  HaCat (% LDH release): 17 ± 0.95%
[3]
  A375 (% LDH release): 68 ± 0.91%
  Fold increase in LDH release: 4.0
[4]
  CC50: 106 ± 3.99 µM

## C[C@@H]1CC[C@H]2[C@@H](C)C(=O)O[C@@H]3O[C@@]4(C)CC[C@@H]1[C@]32OO4 [Artemisinin 2, artemisinin]
[1]
  IC50: 150 ± 3.61 µM
  Therapeutic index (TI): 2.5
[2]
  HaCat (% LDH release): 18 ± 0.84%
[3]
  LDH release, result in words: did not significantly increase the release of LDH
  A375 (% LDH release): 24 ± 0.96%
  Fold increase in LDH release: 1.3
[4]
  CC50: 381 ± 5.36 µM

— article PMC7552967, “Anti-Melanoma Activities of Artemisone and Prenylated Amino-Artemisinins in Combination With Known Anticancer Drugs” (Frontiers in Pharmacology, 2020)
